According to patent US9556217B2, “Amphiphilic compounds” (WISCONSIN ALUMNI RESEARCH FOUNDATION, priority 2012, dated 2017):

Tests used:
[1] = target: T1, melibiose permease (MelB) (Salmonella typhimurium, UniProt P30878); assay: MelB solubilization and thermostability (SDS-PAGE, immunoblot); settings: 1.5 wt %; for MelB extraction from membranes at 0° C.: 10 min or 90 min
T1 construct: made in house; host or cells: E. coli DW2-R (ΔmelB, ΔlacZY), vector pK35ΔAHB/WT MelB/CH6
Method: DDM (1.5 wt %) or GDN (1.5 wt %) was used to extract MelB from S. typhimurium membranes at 0° C. for 10 min or 90 min and then aggregated material was removed via ultracentrifugation. The amount of MelB in solution was determined by SDS-PAGE with immunoblot detection (FIG. 10).
The effect of DDM and GDN on MelB thermostability was assessed by solubilizing the protein at the elevated temperatures for 90 min. […] Presumably MelB denatured and aggregated at the higher temperature in the presence of DDM. […] When MelB expressed in E. coli was used, similar results were obtained (FIG. 11).
The protocol reported by Chae and coworkers (Nat. Methods 2010, 7, 1003-1008) was used to evaluate MelB stability with DDM and GDN.
The reported protocol3 was used to evaluate MelB stability with DDM and GDN. Vector pK35ΔAHB/WT MelB/CH6 encoding the wild-type MelB with a 6-His tag at the C-terminus and E. coli DW2-R cells (ΔmelB and ΔlacZY) are used for the assay. Cells were harvested, resuspended in a buffer containing 20 mM Tris, pH 7.5, 200 mM NaCl and 10% glycerol. The harvested cells were subjected to French press and centrifugation at 20,000 g for 15 min. Subsequently, membranes were obtained via ultracentrifugation at 43,000 rpm for 3 hr in the Beckman rotor, Type 45 Ti rotor. A protein assay was carried out with a BCA kit (Thermo Scientific, Rockford, Ill.). For the measurement of solubilization efficiency, membrane samples containing MelB were incubated with a solubilization buffer (20 mM Tris, 200 mM NaCl, 10% glycerol, 20 mM melibiose, pH, 7.5) and 1.5 wt % DDM or GDN at 0° C. for 10 min. The final protein concentration was 10 mg/mL. For the MelB thermostability, the samples were incubated for 90 min at the four different temperatures (0, 45, 55, and 65° C.). After ultracentrifugation at 355,590 g in a Beckman Optima™ MAX Ultracentrifuge using a TLA-100 rotor for 45 min at 4° C., 10 μg protein before and after spin for each condition was analyzed by SDS-12% PAGE and immunoblotted with Penta-His-HRP antibody (Qiagen, Germantown, Md.).

[2] = test system: leucine transporter (LeuT); assay: LeuT functional assay ([3H]-Leu binding, SPA); assay type: biochemical, Aquifex aeolicus; settings: CMC+0.04 wt % or CMC+0.2 wt %
Method: The new amphiphiles were then evaluated for the ability to maintain the leucine transporter (LeuT) from Aquifex aeolicus in a functional state (Quick and Javitch, Proc. Natl. Acad. Sci. USA 2007, 104, 3603-3608). The transporter was initially extracted with DDM and then diluted with amphiphile-containing solutions to generate amphiphile concentration of CMC+0.04 wt % or CMC+0.2 wt %. At both concentrations, GDN was very effective at maintaining LeuT activity, as indicated by binding of radiolabeled leucine, with preservation of >95% of initial activity after 12 days (FIG. 5c).
LeuT functionality was measured according to the procedure reported by Chae and coworkers (Nat. Methods 2010, 7, 1003-1008).
LeuT activity was measured according to the reported procedure (Chae et al., J. Am. Chem. Soc. 2010, 132, 16750-16752). […] Following protein storage at RT, at the indicated time points, samples were centrifuged and the protein concentration was assessed by determining absorbance at 280 nm. Concomitantly, for the corresponding time points, [^3H]-Leu binding was measured using scintillation proximity assay (SPA). […] Binding was assessed in 200 mM NaCl in the presence of tested compounds at the above-mentioned concentrations, and monitored using MicroBeta liquid scintillation counter (PerkinElmer).

[3] = target: T2, CMP-Sia fusion protein bearing green fluorescent protein (GFP) (Mus musculus, UniProt Q61420); assay: CMP-Sia-GFP fusion solubilization (fluorescence); settings: 1 hr at 4° C., total fluorescence
T2 construct: made in house; host or cells: Saccharomyces cerevisiae FGY217
Method: The favorable MelB extraction performance of GDN led to the examination of this amphiphile for extraction of other IMPs. […] DDM and GDN were used to extract a CMP-Sia fusion protein bearing green fluorescent protein (GFP) at the C-terminus, after expression in Saccharomyces cerevisiae; the amount of solubilized protein was estimated by total fluorescence. GDN (2 wt %), DDM (1 wt %) and OG (1 wt %) gave ˜70%, ˜80% and ˜50% extraction yields, respectively.
The procedure was performed according to the protocol reported by Chae and coworkers (Nat. Methods 2010, 7, 1003-1008).
CMP-Sia was expressed as a fusion protein with a C-terminal GFP in FGY217 Saccharomyces cerevisiae cells. Cell lysis was conducted by using a cell disrupter (Constant Systems) and the protein samples were subjected to centrifugation at 15,000 g for 10 mins to remove unbroken cells and debris. Subsequently, the membranes were harvested by ultracentrifugation at 150,000 g for 45 min. The membranes were resuspended in 50 mM Tris-HCl (pH 7.6), 1 mM EDTA, 0.6 M sorbitol and the protein concentration was estimated using a BCA kit (Pierce). The membranes were incubated with OG or DDM at 1.0%, or GDN at 2.0% for 1 hr at 4° C. A fluorescence value was measured for each sample before and after ultracentrifugation at 150,000 g for 1 h. The solubilization efficiency was calculated via the fluorescence measurements of the soluble supernatant/the total sample.

T1 sequence (P30878 whole entry): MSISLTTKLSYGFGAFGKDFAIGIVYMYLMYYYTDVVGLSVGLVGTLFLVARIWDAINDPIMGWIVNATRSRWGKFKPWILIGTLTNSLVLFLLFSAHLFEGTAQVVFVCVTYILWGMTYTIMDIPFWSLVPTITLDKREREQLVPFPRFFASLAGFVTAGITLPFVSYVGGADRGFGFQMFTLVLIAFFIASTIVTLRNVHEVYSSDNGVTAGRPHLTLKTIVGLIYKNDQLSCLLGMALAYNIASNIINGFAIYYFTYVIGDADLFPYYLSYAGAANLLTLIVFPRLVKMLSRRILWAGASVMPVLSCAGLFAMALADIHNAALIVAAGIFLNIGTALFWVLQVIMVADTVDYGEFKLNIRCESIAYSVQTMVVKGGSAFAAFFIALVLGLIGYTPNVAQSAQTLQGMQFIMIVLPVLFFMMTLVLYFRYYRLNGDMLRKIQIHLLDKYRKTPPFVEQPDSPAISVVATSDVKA

| Compound | MelB extraction from membranes at 0° C. [1] | Soluble MelB at 45° C. ([1]; 90 min, 45° C.) | Soluble MelB at 55° C. ([1]; 90 min) | Maintaining LeuT activity over 12 days ([2]; RT) | CMP-Sia-GFP extraction yield ([3]; 1 wt %) [%] | Soluble MelB at 65° C. ([1]; 90 min, 65° C.) | LeuT activity preserved, % of initial activity ([2]; after 12 days at RT) [%] | CMP-Sia-GFP extraction yield ([3]; 2 wt %) [%] |
| --- | --- | --- | --- | --- | --- | --- | --- | --- |
| CCCCCCCCCCCCO[C@@H]1O[C@H](CO)[C@@H](O[C@H]2O[C@H](CO)[C@@H](O)[C@H](O)[C@H]2O)[C@H](O)[C@H]1O [DDM, dodecyl-β-D-maltoside, reference compound] | quantitatively extract | high yield of soluble MelB | no soluble protein was obtained | lost significant activity | ~80 | – | – | – |
| C[C@@H]1CC[C@@]2(OC1)O[C@H]1C[C@H]3[C@@H]4CC=C5C[C@@H](OCCC(CO[C@@H]6OC(CO)[C@@H](O[C@H]7OC(CO)[C@@H](O)C(O)C7O)C(O)C6O)CO[C@@H]6OC(CO)[C@@H](O[C@H]7OC(CO)[C@@H](O)C(O)C7O)C(O)C6O)CC[C@]5(C)[C@H]4CC[C@]3(C)[C@@H]1[C@@H]2C (stereo partly shown) [GDN, glyco-diosgenin] | not quite as efficient in extraction | – | large amounts of soluble protein | – | – | large amounts of soluble protein | > 95 | ~70 |
